Results from ChEMBL document CHEMBL1201862, “PubChem BioAssay data set” (2004).
Where “and” joins values, the source holds several entries; their conditions need not be identical. Equal entries are not always repeated. Calls of active or inactive are those of the source.

Legend:
Protein skinhead-1 = biological target: T1, Protein skinhead-1 (Caenorhabditis elegans, UniProt P34707); type: functional
T1 sequence (P34707 whole entry): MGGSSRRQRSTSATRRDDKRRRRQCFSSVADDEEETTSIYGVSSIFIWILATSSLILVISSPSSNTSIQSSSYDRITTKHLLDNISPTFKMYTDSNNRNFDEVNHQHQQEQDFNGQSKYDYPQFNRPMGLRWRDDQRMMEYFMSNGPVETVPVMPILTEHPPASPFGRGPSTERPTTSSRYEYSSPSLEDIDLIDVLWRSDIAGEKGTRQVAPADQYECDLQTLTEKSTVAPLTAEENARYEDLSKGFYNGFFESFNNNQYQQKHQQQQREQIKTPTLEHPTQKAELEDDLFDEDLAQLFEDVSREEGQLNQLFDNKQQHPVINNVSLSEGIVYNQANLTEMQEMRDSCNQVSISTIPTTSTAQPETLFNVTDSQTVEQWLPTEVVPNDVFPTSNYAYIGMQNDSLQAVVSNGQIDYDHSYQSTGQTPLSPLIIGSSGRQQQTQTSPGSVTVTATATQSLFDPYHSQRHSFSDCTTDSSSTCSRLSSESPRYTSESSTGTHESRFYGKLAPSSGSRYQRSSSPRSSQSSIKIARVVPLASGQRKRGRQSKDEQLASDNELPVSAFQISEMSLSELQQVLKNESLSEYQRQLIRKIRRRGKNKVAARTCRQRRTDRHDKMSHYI

fMet-Leu-Phe receptor = biological target: T2, fMet-Leu-Phe receptor (Homo sapiens, UniProt P21462); assay: FPR ligands, dose response (AID 519); type: functional
T2 sequence (P21462 whole entry): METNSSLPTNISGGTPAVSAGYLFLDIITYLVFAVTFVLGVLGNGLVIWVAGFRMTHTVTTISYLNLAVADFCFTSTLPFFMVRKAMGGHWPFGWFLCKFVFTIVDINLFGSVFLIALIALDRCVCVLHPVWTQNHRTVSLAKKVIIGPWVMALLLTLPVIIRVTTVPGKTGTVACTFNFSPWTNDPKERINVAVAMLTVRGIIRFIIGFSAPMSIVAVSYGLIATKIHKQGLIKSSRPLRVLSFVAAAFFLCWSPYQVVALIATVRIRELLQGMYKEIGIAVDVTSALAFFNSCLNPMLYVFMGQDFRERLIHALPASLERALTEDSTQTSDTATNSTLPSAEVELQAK

Cytochrome P450 2C19 = Cytochrome P450 2C19 (Homo sapiens, UniProt P33261); assay: Cytochrome panel assay with activity outcomes. Panel member name: p450-cyp2c19 Compounds with AC50 equal or less than 10 uM are considered active; type: functional; details: read-out: AC50
Cytochrome P450 2C19, sequence (P33261 whole entry): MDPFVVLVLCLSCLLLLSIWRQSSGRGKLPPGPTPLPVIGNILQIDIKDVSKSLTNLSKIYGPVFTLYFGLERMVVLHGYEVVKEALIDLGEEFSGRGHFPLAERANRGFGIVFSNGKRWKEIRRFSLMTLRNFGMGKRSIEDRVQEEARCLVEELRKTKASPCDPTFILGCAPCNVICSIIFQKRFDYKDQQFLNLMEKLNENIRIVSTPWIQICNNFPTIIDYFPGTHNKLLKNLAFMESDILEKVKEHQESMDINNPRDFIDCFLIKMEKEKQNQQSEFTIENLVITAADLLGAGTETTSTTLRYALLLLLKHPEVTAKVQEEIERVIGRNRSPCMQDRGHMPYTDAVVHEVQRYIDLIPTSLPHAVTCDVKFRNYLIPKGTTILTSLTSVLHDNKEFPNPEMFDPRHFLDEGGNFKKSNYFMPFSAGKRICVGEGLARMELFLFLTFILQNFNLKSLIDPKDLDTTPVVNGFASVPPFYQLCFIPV

Cytochrome P450 3A4 = Cytochrome P450 3A4 (Homo sapiens, UniProt P08684);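 also: CYP3A4 tested as one member of a cytochrome P450 panel screen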
Cytochrome P450 3A4, sequence (P08684 whole entry): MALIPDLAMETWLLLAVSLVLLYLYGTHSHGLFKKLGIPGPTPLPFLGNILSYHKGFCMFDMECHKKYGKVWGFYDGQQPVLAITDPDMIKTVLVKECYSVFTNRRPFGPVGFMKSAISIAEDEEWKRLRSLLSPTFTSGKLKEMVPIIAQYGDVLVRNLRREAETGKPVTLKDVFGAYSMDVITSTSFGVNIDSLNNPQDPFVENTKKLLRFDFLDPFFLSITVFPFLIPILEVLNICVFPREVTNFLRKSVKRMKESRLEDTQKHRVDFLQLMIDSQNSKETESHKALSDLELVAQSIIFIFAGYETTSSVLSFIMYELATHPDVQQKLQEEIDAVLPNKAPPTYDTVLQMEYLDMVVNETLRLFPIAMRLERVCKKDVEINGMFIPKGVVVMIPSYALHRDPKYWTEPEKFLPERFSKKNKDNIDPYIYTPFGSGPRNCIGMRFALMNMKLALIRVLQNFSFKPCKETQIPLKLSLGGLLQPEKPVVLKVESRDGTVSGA

Cytochrome P450 1A2 = biological target: T3, Cytochrome P450 1A2 (Homo sapiens, UniProt P05177);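 also: PubChem cytochrome P450 panel assay, CYP1A2 panel member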
T3 sequence (P05177 whole entry): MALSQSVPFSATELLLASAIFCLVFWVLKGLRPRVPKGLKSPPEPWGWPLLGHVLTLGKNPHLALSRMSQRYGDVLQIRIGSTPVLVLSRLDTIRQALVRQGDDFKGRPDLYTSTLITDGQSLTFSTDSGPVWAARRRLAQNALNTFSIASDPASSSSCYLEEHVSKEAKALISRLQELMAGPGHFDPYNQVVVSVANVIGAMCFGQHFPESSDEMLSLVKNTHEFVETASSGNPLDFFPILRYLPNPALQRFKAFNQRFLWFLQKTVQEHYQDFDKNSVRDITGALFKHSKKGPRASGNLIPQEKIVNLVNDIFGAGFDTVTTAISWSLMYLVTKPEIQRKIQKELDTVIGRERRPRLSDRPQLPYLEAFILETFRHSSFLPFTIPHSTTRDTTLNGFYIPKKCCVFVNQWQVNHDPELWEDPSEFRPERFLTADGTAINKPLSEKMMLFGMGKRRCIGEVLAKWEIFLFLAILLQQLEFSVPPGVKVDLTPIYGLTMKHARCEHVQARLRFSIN

Aminopeptidase N = biological target: T4, Aminopeptidase N (Plasmodium falciparum FcB1/Columbia, UniProt O96935); assay: P. falciparum M1AAP inhibitors, biochemical, fluorogenic H-Leu-NHMec substrate, 1536-well (AID 1445); set-up: species or system Plasmodium falciparum 3D7, 3D7
T4 sequence (O96935 whole entry): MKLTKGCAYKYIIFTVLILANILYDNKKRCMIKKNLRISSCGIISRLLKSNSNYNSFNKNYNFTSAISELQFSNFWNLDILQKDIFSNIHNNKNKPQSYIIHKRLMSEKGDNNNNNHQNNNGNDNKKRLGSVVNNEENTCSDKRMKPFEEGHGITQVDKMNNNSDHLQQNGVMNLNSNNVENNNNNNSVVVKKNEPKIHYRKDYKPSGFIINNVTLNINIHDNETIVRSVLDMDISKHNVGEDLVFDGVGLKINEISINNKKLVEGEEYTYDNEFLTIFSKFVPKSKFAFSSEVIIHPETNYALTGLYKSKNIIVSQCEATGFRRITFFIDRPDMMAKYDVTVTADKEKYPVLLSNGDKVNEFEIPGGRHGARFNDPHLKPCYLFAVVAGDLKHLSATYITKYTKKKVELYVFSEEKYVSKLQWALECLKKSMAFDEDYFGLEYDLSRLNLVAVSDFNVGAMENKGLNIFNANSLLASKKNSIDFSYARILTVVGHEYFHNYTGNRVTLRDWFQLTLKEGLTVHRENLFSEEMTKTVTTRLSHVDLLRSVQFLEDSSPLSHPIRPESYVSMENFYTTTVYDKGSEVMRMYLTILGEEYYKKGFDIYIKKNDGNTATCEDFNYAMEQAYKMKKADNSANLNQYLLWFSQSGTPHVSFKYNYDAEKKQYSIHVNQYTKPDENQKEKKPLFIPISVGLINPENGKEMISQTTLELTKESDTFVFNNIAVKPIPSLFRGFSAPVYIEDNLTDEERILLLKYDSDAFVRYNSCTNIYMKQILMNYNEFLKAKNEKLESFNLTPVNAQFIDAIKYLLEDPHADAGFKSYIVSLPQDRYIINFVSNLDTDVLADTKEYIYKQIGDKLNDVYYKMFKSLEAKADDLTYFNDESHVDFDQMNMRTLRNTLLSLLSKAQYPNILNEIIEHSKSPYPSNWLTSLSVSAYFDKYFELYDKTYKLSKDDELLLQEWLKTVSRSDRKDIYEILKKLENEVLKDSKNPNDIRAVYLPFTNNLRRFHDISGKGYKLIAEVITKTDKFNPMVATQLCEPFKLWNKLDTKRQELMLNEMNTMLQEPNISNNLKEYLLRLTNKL

[1] = biological target: T5, DNA repair and recombination protein RAD54-like (Homo sapiens, UniProt Q92698); assay: inhibitors of human RAD54 branch migration, confirmation, biochemical, fluorescence, cherry-picked samples, dose series (AID 651657); type: functional
T5 sequence (Q92698 whole entry): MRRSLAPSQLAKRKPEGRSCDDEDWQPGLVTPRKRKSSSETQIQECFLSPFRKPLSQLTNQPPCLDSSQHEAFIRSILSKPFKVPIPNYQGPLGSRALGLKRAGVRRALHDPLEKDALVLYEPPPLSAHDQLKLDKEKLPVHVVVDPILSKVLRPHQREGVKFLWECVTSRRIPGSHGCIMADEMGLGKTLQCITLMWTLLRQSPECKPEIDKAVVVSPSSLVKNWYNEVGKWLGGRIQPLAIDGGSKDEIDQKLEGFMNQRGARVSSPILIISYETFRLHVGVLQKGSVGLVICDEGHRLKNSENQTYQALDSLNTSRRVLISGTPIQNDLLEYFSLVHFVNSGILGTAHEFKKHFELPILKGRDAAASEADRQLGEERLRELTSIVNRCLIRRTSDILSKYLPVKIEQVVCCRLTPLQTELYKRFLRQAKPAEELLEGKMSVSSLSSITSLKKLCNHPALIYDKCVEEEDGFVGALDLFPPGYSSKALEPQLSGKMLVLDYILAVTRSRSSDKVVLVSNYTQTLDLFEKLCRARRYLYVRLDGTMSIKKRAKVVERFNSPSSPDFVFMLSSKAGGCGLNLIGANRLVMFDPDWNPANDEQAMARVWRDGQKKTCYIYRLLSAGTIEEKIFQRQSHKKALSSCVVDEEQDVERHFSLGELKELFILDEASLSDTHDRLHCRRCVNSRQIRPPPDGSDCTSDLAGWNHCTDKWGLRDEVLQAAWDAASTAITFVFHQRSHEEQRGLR

[2] = biological target: T6, Histone-lysine N-methyltransferase NSD2 (Homo sapiens, UniProt O96028); type: biochemical
T6 sequence (O96028 whole entry): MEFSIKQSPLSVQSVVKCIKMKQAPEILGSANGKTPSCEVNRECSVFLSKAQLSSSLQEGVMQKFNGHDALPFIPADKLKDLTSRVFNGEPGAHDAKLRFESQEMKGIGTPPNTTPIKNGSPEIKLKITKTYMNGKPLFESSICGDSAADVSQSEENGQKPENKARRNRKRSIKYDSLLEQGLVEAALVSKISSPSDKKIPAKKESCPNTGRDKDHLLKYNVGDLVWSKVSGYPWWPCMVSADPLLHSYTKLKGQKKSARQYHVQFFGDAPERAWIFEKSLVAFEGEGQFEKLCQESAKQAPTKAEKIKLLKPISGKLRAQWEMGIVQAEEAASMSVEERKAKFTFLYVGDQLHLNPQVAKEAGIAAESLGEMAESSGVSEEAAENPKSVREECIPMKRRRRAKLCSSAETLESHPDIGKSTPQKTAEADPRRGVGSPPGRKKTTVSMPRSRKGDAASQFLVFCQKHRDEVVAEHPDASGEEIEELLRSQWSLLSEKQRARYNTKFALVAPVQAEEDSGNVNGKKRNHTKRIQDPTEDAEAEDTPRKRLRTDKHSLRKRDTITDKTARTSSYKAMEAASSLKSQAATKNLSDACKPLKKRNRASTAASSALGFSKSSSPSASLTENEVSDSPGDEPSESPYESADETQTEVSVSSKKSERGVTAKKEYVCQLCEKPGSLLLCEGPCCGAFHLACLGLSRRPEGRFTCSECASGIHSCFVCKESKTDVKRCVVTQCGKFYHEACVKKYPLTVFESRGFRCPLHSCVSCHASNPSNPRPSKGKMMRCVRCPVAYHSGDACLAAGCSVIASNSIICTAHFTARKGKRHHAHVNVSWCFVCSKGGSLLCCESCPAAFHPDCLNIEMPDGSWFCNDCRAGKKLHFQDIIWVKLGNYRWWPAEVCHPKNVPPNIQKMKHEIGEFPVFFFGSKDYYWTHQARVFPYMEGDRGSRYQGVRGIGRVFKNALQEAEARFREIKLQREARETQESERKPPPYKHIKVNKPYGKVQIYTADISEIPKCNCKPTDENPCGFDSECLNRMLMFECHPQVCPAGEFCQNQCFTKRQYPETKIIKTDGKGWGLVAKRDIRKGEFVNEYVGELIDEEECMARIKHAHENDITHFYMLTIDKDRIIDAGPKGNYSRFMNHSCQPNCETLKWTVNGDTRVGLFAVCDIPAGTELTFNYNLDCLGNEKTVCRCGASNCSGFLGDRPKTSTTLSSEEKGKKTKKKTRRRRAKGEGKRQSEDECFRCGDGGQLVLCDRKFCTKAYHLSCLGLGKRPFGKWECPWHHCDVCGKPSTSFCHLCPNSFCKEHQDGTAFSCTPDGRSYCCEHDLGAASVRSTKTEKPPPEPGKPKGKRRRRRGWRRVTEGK

Cytochrome P450 2D6 = Cytochrome P450 2D6 (Homo sapiens, UniProt P10635);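 also: CYP2D6 member of a cytochrome P450 panel assay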
Cytochrome P450 2D6, sequence (P10635 whole entry): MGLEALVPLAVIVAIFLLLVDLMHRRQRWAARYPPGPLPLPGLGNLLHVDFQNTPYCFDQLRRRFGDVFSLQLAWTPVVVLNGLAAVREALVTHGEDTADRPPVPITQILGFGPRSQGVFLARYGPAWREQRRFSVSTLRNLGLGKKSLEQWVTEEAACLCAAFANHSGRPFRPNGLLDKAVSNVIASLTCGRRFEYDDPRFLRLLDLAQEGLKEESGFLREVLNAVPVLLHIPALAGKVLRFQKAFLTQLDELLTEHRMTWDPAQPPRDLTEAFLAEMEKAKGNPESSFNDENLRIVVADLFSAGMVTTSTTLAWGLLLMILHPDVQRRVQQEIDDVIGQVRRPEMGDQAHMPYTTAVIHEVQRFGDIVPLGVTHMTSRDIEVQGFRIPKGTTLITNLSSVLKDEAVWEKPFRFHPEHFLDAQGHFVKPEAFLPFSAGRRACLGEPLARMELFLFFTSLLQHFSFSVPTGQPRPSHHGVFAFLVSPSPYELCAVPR

Compound | IC50 (Protein skinhead-1) | Ki (fMet-Leu-Phe receptor) | other results
COC(=O)c1ccc(-c2ccc(Cl)cc2)nc1C | 82.5 µM (inactive) | – | –
Cc1nn(C(=O)CCC(=O)NCc2cccc(F)c2)c2ccccc12 | > 100 µM (inactive) | – | –
CCSc1nnc(NC(=O)CSc2nnc(Cc3cccn3C)n2CCc2ccccc2)s1 | – | > 66.7 µM (inactive) | –
O=C(Nc1ccc2nc(-c3ccccc3)oc2c1)c1ccco1 | > 100 µM (inactive) | – | –
CCOc1cc(C(=O)NCc2nnc(SCC(=O)OC)n2C)cc(OCC)c1OCC | – | > 66.7 µM (inactive) | –
Clc1ccc2oc(SCc3cccnc3)nc2c1 | 33.5 µM (active) | – | –
CCCN(CCC)CCCNC(=O)c1cc2cc3ccc(OC)cc3nc2o1 | – | – | AC50 (Cytochrome P450 2C19): 20 µM (inconclusive); AC50 (Cytochrome P450 3A4): 15.8 µM (inconclusive); AC50 (Cytochrome P450 1A2): 20 µM (inconclusive); IC50 (Aminopeptidase N): 45.9 µM (active); AC50 [1]: 31.6 µM (active)
CCNCCC(=O)N1c2ccccc2Sc2ccc(C(F)(F)F)cc21 | – | – | AC50 [2]: > 20 µM (inactive)
O=C(C1=C(O)C(=O)N(CC2CCCO2)C1c1cccnc1)c1ccco1 (stereo not given) | – | 54.8 µM (inactive) | –
Clc1ccccc1-c1nc(-c2ccncc2)no1 [PIFEXOLE] | 11.2 µM (active) and 18.8 µM (active) | – | AC50 (Cytochrome P450 3A4): 2 µM (inconclusive); AC50 (Cytochrome P450 2D6): 3.16 µM (inconclusive)
CNCCC1Sc2ccccc2Oc2ccccc21 (stereo not given) | – | – | AC50 [2]: > 20 µM (inactive)
O=C(COc1ccccc1)N/N=C/c1sc(=O)n(Cc2cccc(C(=O)O)c2)c1Cl | – | – | AC50 [2]: > 20 µM (inactive)
CCc1nn2c(=O)cc(CSc3nc4sc5c(c4c(=O)n3C)CCCC5)nc2s1 | – | > 66.7 µM (inactive) | –
CCOC(=O)CCn1nc(-c2ccc(Cl)cc2)cc1N | – | > 66.7 µM (inactive) | –
